Source: patent US9533040B2, “Inhibition of human immunodeficiency virus integrase reaching dimer formation utilizing single-chain variable antibodies” (priority 2010, dated 2017)

B1: mAb33: monoclonal antibody specific for the CTD of HIV IN; single chain Fv sequence SEQ ID NO:194 (protein, listed as Mus musculus)
scFv: MKYLLPTAAAGLLLLAAQPAMAMGHHHHHHHHHHSSGHIDDDDKHMDIQMTQSPSSLSASLGGKVTITCKASQDIYKYIAWYQHKPGKGPRLLIHYTSTLQPGIPSRFSGSGSGRDYSFSISNLEPEDIATYYCLQYDNLWTFGGGTKLEIKRADAAPTVSIFPPSSKLGPGGGGSGGGGSGGGGSELGRSEVKLVESGGGLVKPGGSLKLSCAASGFSFSSYAMSWVRQTPEKRLEWVASISSGGNTYYPDSVKGRFTISRDNARNILYLQMSSLRSEDTAMYYCARLDTTVEGDWYFDVWGAGTTLTVSS
B2: mAb17: monoclonal antibody specific for the NTD of HIV IN; single chain Fv sequence SEQ ID NO:195 (protein, listed as Mus musculus)
scFv: MKYLLPTAAAGLLLLAAQPAMAMGHHHHHHHHHHSSGHIDDDDKHMDVWLTQTPLSLPVSLGDQASISCRSSQTFVHSDGNTYLEWYLQKPGQSPKLLIYKISNRFSGVPDRFSGSGSGTDFTLKISGVEAEDLGLYYCFQGSHVPFTFGSGTKLEIRRADAAPTVSIFPPSSKLGPGGGGSGGGGSGGGGSELGRSQVQLQQSGAELVRPGASVTLSCKASGYTFIEYEMHWVKQAPVHGLEWIGAVDPETGGTAYNQKFKGKAILTADKSSSTGYMELRSLTSESSAVYYCARQGLGYWGQGTLVTVSA

How the values were obtained:
HIV IN = HIV IN (Human immunodeficiency virus type 1 group M subtype B, UniProt P12497); conditions: previous studies; cited from earlier work
ASV IN = ASV IN (Rous sarcoma virus subgroup C, UniProt P03354, K1536E/R1446K/V1381A); conditions: previous studies; cited from earlier work
Chain of ASV IN (P03354 1281-1566 V1381A/R1446K/K1536E): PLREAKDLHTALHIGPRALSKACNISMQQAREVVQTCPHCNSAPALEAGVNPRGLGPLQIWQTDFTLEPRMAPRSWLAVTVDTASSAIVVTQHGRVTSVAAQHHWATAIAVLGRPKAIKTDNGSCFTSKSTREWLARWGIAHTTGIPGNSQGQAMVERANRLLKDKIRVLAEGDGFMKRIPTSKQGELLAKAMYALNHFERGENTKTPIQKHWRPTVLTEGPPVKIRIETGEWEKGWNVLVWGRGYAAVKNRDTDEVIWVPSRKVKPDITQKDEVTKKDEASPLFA

HIV IN (F181T) dimer = target: T1, HIV IN (F181T) dimer (Human immunodeficiency virus type 1 group M subtype B, UniProt P12497, F1328T); assay: FRET multimerization assay (reaching dimer formation); format: binding; conditions: each at 1 μM; HIV IN (F181T) at 2 μM; relative to untreated control
T1 construct: made in house
Method: The effects of monoclonal antibodies and four small molecule inhibitors (each at 1 μM) are shown.
A multimerization assay based on fluorescence resonance energy transfer (FRET) between donor and acceptor dyes attached to C280 in HIV IN was used. The F181T substitution was introduced in order to monitor reaching dimer formation specifically (see Table 1 and FIGS. 9 and 11). One preparation was labeled with a donor fluorophore (Cy3) and a second with the acceptor (Cy5). Upon mixing (final conc. IN between 0.5 to 2 μM) and equilibration, the FRET efficiency obtained is consistent with the expected apparent distance of 60-65 Å in a reaching dimer. The Z′ factor of 0.7 obtained with this assay is in the “excellent” range for high throughput screening, and additional adjustments (e.g., use of alternative dye pairs, filter changes) may allow us to improve sensitivity even further. To validate the assay, the effects of monoclonal antibodies specific for the CTD (mAb33) or NTD (mAb17) of HIV IN were tested (FIG. 31). […] These preliminary results support the notion that compounds that either stabilize or block reaching dimer formation can result in inhibition of catalysis by IN.

Molecule	inhibition of HIV IN (HIV IN)	inhibition of ASV IN (ASV IN)	effect on FRET-monitored IN self-association (reaching dimer formation) (HIV IN (F181T) dimer)
2BrNSA	robust inhibition	robust inhibition	–
B1	–	–	inhibit FRET-monitored self-association
B2	–	–	inhibit FRET-monitored self-association
